Measurements reported in patent US4513008A, “Virucidal compositions and therapy” (The Vinoxen Company, Inc., priority 1982, dated 1985).

Columns and labels:
[1] = test system: HSV-2; assay: Separate experiments: speed of virus inhibition by DHA
[2] = test system: herpes virus type 2; assay: Guinea pig bioassay: intravaginal HSV-2 infection, topical treatment; type: in vivo; set-up: key to MVL Score Day 5 / MVL Score Day 6 / MVL Score Day 7 / MVL Score Day: lesion severity scored on 0 to 4 scale; settings: for MVL Scores Days 5-8: 0 to 4 scale; for Infected, Treated Surv/Total: 28 days; for MVL Score Day: last day; for reduction in lesion scores, in words: guinea pigs, topical
Procedure: In both studies, DHA was compared with ACV in a controlled study for effectiveness in reducing the occurrence and the severity of lesions resulting from infection by HSV-2 and in reducing mortality resulting from the virus infection.
Using substantially the procedures of Pancic et al., loc. cit., the topical activity of DHA, a representative and preferred virucide for use in the present method, was evaluated in mice and in guinea pigs. Both evaluations included comparative testing against ACV and the mouse tests included a comparison of two different vehicles.
A blind comparative test was carried out on guinea pigs using coded substances labeled A through D. The testers were told only that one of the four substances was ACV, that the other three coded samples were the same material, in concentrations of 0.1, 1.0 and 10 mg/ml, and that all four samples were formulated in a polyethylene glycol 1000 (PEG-1000) vehicle. A separate sample of the PEG-1000 was also submitted to serve as a placebo for treating virus control animals. The materials and experimental protocol is shown below.
Animals. Female Hartley strain albino guinea pigs weighing about 450-500 g were used. The animals were quarantined 24 hr prior to use in this study, and maintained 5 to a 32"×32"×9" stainless steel cage on Wayne guinea pig diet and water ad libitum.
Virus. Strain E194 of herpes virus type 2 was used. […] The virus was held at -90° C. until used.
Drugs. The substances tested consisted of four bottles labelled "A", "B", "C", and "D" with no identifying key. The samples were: A, 0.1 mg/ml DHA (0.003 mmol/ml); B, 5% w/w ACV (0.22 mmol/ml); C, 1 mg/ml DHA (0.03 mmol/ml); and D, 10 mg/ml DHA ([…]). […] All were treated as light-sensitive compounds.
Experimental Protocol. The guinea pigs were infected by applying a virus-soaked swab intravaginally, with agitation, for 20 seconds. […] Treatment began 20 hr later, with the compound or placebo applied topically intravaginally, perivaginally, and perianally using cotton swabs soaked in the respective substance. Treatment continued three times daily (8 a.m., noon, 4 p.m.) for 7 days. Ten infected animals were used for each coded substance, with twenty used for virus controls. Five sham-infected animals were concomitantly treated with each coded substance to serve as toxicity controls. Two guinea pigs were held separately to serve as normal untreated controls.
On days 5 through 8 post-virus inoculation, the genital area was carefully examined and signs of irritation in the toxicity controls and lesion severity in injected animals was scored on a 0 to 4 scale using the same scale as in the mouse bioassay. The results were scored as average daily lesion (ADL) scores for each group, and as mean vaginal lesion (MVL) scores, calculated as the mean of the ADL scores for days 5-8. The maximum mean score for the toxicity control animals was also determined.
On day 6 prior to the 8 a.m. treatment, intravaginal and perivaginal areas of each infected guinea pig were uniformly swabbed with sterile cotton swabs. The swab for each animal was placed in 1.0 ml of sterile Eagles minimum essential medium and immediately frozen at -90° C.; several days later all were thawed and each swab-containing sample vortexed for 15 seconds and then the sample was diluted through a series of 10-fold dilutions in sterile medium. Each dilution was assayed for virus in triplicate by adding 0.1 ml to an established monolayer of MA-104 cells in 96-well disposable plastic microplates. The plates were sealed, incubated at 72 hr at 37° C., and virus-induced cytopathic effect noted microscopically.
Data Analysis. Increases in survivors were analyzed using chi square analysis with Yate's correction. Mean survival times (MST) of animals dying on or before […] were determined for each group, and evaluated using the t test.

[3] = C: 1 mg/ml DHA in PEG-1000, P < 0.05
[4] = D: 10 mg/ml DHA in PEG-1000, P < 0.05

## CCC=CCC=CCC=CCC=CCC=CCC=CCCC(=O)O [DHA, 4,7,10,13,16,19 Docosahexaenoic Acid]
[1]; within 30 seconds of contact
  virus inhibited: more than 98%
[1]; within 30 minutes of contact
  virus inhibited: > 99.99%
[2]; A: 0.1 mg/ml DHA in PEG-1000
  MST (mean survival time): 12.3 days
  MVL Score Day 5: 2.4
  MVL Score Day 6: 3.0
  MVL Score Day 7: 3.5
  MVL Scores Days 5-8: 3.2
  Infected, Treated Surv/Total: 6/10
  MVL Score Day: 3.8
[2]; C: 1 mg/ml DHA in PEG-1000
  MST (mean survival time): 13.3 days
  MVL Score Day 5: 1.7
  MVL Score Day 7: 2.8
  Infected, Treated Surv/Total: 4/10
  MVL Score Day: 3.1
[2]; [3]
  MVL Scores Days 5-8: 2.4
  MVL Score Day 6: 2.3
[2]; D: 10 mg/ml DHA in PEG-1000
  MST (mean survival time): 16.5 days
  MVL Score Day 7: 3.0
  Infected, Treated Surv/Total: 8/10
  MVL Score Day: 3.1
[2]; [4]
  MVL Scores Days 5-8: 2.4
  MVL Score Day 5: 1.5
  MVL Score Day 6: 2.1
[2]
  reduction in lesion scores, in words: neither ACV nor the lowest dosage of DHA were able to achieve a statistically significant reduction in lesion scores
[2]; listed as C
  reduction in lesion scores, in words: statistically significant reductions in lesion scores
[2]; listed as D
  reduction in lesion scores, in words: statistically significant reductions in lesion scores
